For assay [1], the system named is GPR17. The conditions noted are these: cited from earlier work.
Assay [2] deals with T1, hGPR17L (Homo sapiens, UniProt Q13304). In words: Calcium mobilization assay. As to conditions: for antagonist activity at GPR17: calcium mobilization assay, data not shown; for Emax: 1321-N1, read-out: % Efficacy Avg ± SEM; for IC50 / Calcium assay IC50(μM) Avg ± SEM: reported only when efficacy ≥75%. It is filed as cell-based. For orientation: Calcium flux is commonly read through the fluorescence of an indicator in the cells.
T1 sequence (Q13304 whole entry): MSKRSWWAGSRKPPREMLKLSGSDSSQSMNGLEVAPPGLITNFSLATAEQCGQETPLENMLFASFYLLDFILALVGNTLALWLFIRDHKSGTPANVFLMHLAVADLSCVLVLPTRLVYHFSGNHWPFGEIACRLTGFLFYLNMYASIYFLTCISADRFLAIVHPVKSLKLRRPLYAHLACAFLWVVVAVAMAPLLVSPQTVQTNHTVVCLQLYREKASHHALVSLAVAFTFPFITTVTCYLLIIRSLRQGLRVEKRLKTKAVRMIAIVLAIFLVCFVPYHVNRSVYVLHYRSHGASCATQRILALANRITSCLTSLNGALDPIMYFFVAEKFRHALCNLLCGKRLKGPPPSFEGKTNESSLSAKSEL

Assay [3] addresses T1, hGPR17L. In words: cAMP signaling in GLUTag cells expressing hGPR17L. The conditions noted are these: for attenuation of MDL-mediated inhibition of forskolin-stimulated cAMP: 10 μM compound, 100 nM MDL, 10 μM forskolin. It is filed as cell-based.
Assay [4] addresses T1, hGPR17L. In words: GLP-1 secretion assay in GLUTag cells expressing hGPR17L. It is filed as cell-based. The conditions noted are these: 10 μM compound; 6.3 μM MDL; 10 μM forskolin and 10 μM IBMX.
Setting [5] is: Calcium Assay IC50(μM) Avg ± SEM, Table 2.
[6] abbreviates: Calcium assay IC50(μM) Avg ± SEM, Table 3.

Turning to `O=C(O)c1ccc(OCCCc2ccc(OCCCCOc3ccccc3)cc2)c(C(=O)NC2CCCC(C(=O)O)C2)c1` (centres unmarked) [BayCysLT2, reference compound], the “block of MDL-stimulated receptor activation of GPR17” value in assay [1] was “completely”. Besides, in assay [2], the “antagonist activity at GPR17” value was “full antagonist activity”.
Consider `COc1cc(C(=O)NC2CCCc3c2[nH]c2c(Cl)cccc32)cc(OC)c1OC` (centres unmarked) [Compd 2, N-(8-Chloro-2,3,4,9-tetrahydro-1H-carbazol-1-yl)-3,4,5-trimethoxybenzamide], for which the Emax in assay [2] amounted to 47.4 ± 3.11%.
As a reminder, the IC50 is the concentration needed to halve the response being measured. For the compound `O=C(NC1CCCc2c1[nH]c1c(Cl)cccc21)c1ccc2c(c1)OCO2` (centres unmarked) [Compd 3, N-(8-Chloro-2,3,4,9-tetrahydro-1H-carbazol-1-yl)benzo[d][1,3]dioxole-5-carboxamide], the Emax in assay [2] worked out at 77.4 ± 3.46%. In addition, in assay [2] (setting [5]), the IC50 amounted to 11.4 ± 0.59 µM.
Regarding `COc1ccc(C(=O)NC2CCCc3c2[nH]c2c(Cl)cccc32)cc1C` (centres unmarked) [Compd 4, N-(8-Chloro-2,3,4,9-tetrahydro-1H-carbazol-1-yl)-4-methoxy-3-methylbenzamide], the Emax in assay [2] was found to be 81.5 ± 1.23%. The IC50 in assay [2] (setting [5]) was determined as 10.7 ± 0.29 µM.
As for `COc1ccc(C(=O)NC2CCCc3c2[nH]c2c(Cl)cccc32)cc1S(C)(=O)=O` (centres unmarked) [Compd 5, N-(8-Chloro-2,3,4,9-tetrahydro-1H-carbazol-1-yl)-4-methoxy-3-(methylsulfonyl)benzamide], in assay [2], the Emax amounted to 50.6 ± 3.54%.
Same read-out and setting: in the case of `CS(=O)(=O)c1ccc(C(=O)NC2CCCc3c2[nH]c2c(Cl)cccc32)cc1F` (centres unmarked) [Compd 6, N-(8-Chloro-2,3,4,9-tetrahydro-1H-carbazol-1-yl)-3-fluoro-4-(methylsulfonyl)benzamide] it was 38 ± 2.73%.
For the compound `CS(=O)(=O)c1ccc(C(=O)NC2CCCc3c2[nH]c2c(Cl)cccc32)cc1[N+](=O)[O-]` (centres unmarked) [Compd 7, N-(8-Chloro-2,3,4,9-tetrahydro-1H-carbazol-1-yl)-4-(methylsulfonyl)-3-nitrobenzamide], in assay [2], the Emax worked out at 117 ± 6.08%. Also, the half-maximal inhibitory concentration (IC50) in assay [2] (setting [5]) was 4.42 ± 0.34 µM.
Take `O=C(NC1CCCc2c1[nH]c1c(Cl)cccc21)c1ccc([N+](=O)[O-])c([N+](=O)[O-])c1` (centres unmarked) [Compd 8, N-(8-Chloro-2,3,4,9-tetrahydro-1H-carbazol-1-yl)-3,4-dinitrobenzamide]: in assay [3], the “attenuation of MDL-mediated inhibition of forskolin-stimulated cAMP” value is recorded as “significantly attenuated”. The Emax in assay [2] was 74.1 ± 2.16%.
Regarding `COc1cc(C(=O)NC2CCCc3c2[nH]c2c(Cl)cccc32)ccc1F` (centres unmarked) [Compd 9, N-(8-Chloro-2,3,4,9-tetrahydro-1H-carbazol-1-yl)-4-fluoro-3-methoxybenzamide], the Emax in assay [2] worked out at 90.3 ± 7.04%. For the same compound, the half-maximal inhibitory concentration (IC50) in assay [2] (setting [5]) was 12.6 ± 0.89 µM.
With `Cc1cc(C(=O)NC2CCCc3c2[nH]c2c(Cl)cccc32)ccc1Br` (centres unmarked) [Compd 10, 4-Bromo-N-(8-chloro-2,3,4,9-tetrahydro-1H-carbazol-1-yl)-3-methylbenzamide], the Emax in assay [2] is 52.8 ± 2.26%.
On the same count and under the same terms, then `Cc1cc([N+](=O)[O-])ccc1C(=O)NC1CCCc2c1[nH]c1c(Cl)cccc21` (centres unmarked) [Compd 11, N-(8-Chloro-2,3,4,9-tetrahydro-1H-carbazol-1-yl)-2-methyl-4-nitrobenzamide], with 29.8 ± 1.21%; and `O=C(NC1CCCc2c1[nH]c1c(Cl)cccc21)c1c(F)cc([N+](=O)[O-])cc1F` (centres unmarked) [Compd 12, N-(8-chloro-2,3,4,9-tetrahydro-1H-carbazol-1-yl)-2,6-difluoro-4-nitrobenzamide], with 44.3 ± 3.47%.
Turning to `O=C(NC1CCCc2c1[nH]c1c(Cl)cccc21)c1ccc(F)c([N+](=O)[O-])c1` (centres unmarked) [Compd 13, N-(8-chloro-2,3,4,9-tetrahydro-1H-carbazol-1-yl)-4-fluoro-3-nitrobenzamide], the Emax in assay [2] amounted to 101 ± 9.98%. The IC50 in assay [2] (setting [5]) came to 11.6 ± 1.19 µM.
On the same counts, the results for `O=C(NC1CCCc2c1[nH]c1c(Cl)cccc21)C(NS(=O)(=O)c1cccs1)c1ccccc1` (centres unmarked) [Compd 14, N-(8-Chloro-2,3,4,9-tetrahydro-1H-carbazol-1-yl)-2-phenyl-2-(thiophene-2-sulfonamido)acetamide] are 104 ± 9.32% and 7.94 ± 0.49 µM.
`O=C(O)c1ccc(C(=O)NC2CCCc3c2[nH]c2c(Cl)cccc32)cc1` (centres unmarked) [Compd 15, 4-((8-Chloro-2,3,4,9-tetrahydro-1H-carbazol-1-yl)carbamoyl)benzoic acid]: the “attenuation of MDL-mediated inhibition of forskolin-stimulated cAMP” value in assay [3] was “significantly attenuated”. The “attenuation of MDL-mediated inhibition of GLP-1 secretion” value in assay [4] was “significantly attenuated”. The Emax in assay [2] was determined as 49.4 ± 2.45%.
Regarding `O=C(NC1CCCc2c1[nH]c1c(Cl)cccc21)c1ccc(Br)cc1` (centres unmarked) [Compd 16, 4-Bromo-N-(8-chloro-2,3,4,9-tetrahydro-1H-carbazol-1-yl)benzamide], the Emax in assay [2] was determined as 40.4 ± 4.47%.
On the same count and under the same terms, in the case of `Cc1ccc(C(=O)NC2CCCc3c2[nH]c2c(Cl)cccc32)cc1` (centres unmarked) [Compd 17, N-(8-chloro-2,3,4,9-tetrahydro-1H-carbazol-1-yl)-4-methylbenzamide] it was 62.6 ± 4.84%.
With `COc1ccc(C(=O)NC2CCCc3c2[nH]c2ccccc32)cc1OC` (centres unmarked) [Compd 18, 3,4-Dimethoxy-N-(2,3,4,9-tetrahydro-1H-carbazol-1-yl)benzamide], in assay [2], the Emax is 72.1 ± 4.2%. The 50% inhibitory concentration (IC50) in assay [2] (setting [6]) was determined as 9.44 ± 1.25 µM.
Regarding `COc1ccc(C(=O)NC2CCCc3c2[nH]c2c(Br)cccc32)cc1OC` (centres unmarked) [Compd 19, N-(8-Bromo-2,3,4,9-tetrahydro-1H-carbazol-1-yl)-3,4-dimethoxybenzamide], the Emax in assay [2] was 125 ± 4.3%. Further, in assay [2] (setting [6]), the IC50 was determined as 4.29 ± 0.48 µM.
In the case of `COc1cc(OC)cc(C(=O)NC2CCCc3c2[nH]c2c(Br)cccc32)c1` (centres unmarked) [Compd 20, N-(8-bromo-2,3,4,9-tetrahydro-1H-carbazol-1-yl)-3,5-dimethoxybenzamide], the Emax in assay [2] came out at 55.5 ± 1.74%.
As for `COc1ccc(C(=O)NC2CCCc3c2[nH]c2c(C)cc(C)cc32)cc1OC` (centres unmarked) [Compd 21, N-(6,8-Dimethyl-2,3,4,9-tetrahydro-1H-carbazol-1-yl)-3,4-dimethoxybenzamide], the “attenuation of MDL-mediated inhibition of forskolin-stimulated cAMP” value in assay [3] is “significantly attenuated”. Further, the Emax in assay [2] worked out at 87.5 ± 0.92%. In addition, the IC50 in assay [2] (setting [6]) was 12.2 ± 0.5 µM.
As for `COc1cc(OC)cc(C(=O)NC2CCCc3c2[nH]c2c(C)cc(C)cc32)c1` (centres unmarked) [Compd 22, N-(6,8-Dimethyl-2,3,4,9-tetrahydro-1H-carbazol-1-yl)-3,5-dimethoxybenzamide], the Emax in assay [2] was 68.2 ± 1.59%.
On to `COc1ccc(C(=O)NC2CCCc3c2[nH]c2c(C)ccc(C)c32)cc1OC` (centres unmarked) [Compd 23, N-(5,8-dimethyl-2,3,4,9-tetrahydro-1H-carbazol-1-yl)-3,4-dimethoxybenzamide], for which the Emax in assay [2] came to 83.7 ± 2.39%. In addition, the IC50 in assay [2] (setting [6]) came to 11.8 ± 0.5 µM.
For the compound `COc1ccc(C(=O)NC2CCCc3c2[nH]c2c(C(=O)O)cccc32)cc1OC` (centres unmarked) [Compd 24, 1-(3,4-Dimethoxybenzamido)-2,3,4,9-tetrahydro-1H-carbazole-8-carboxylic acid], in assay [2] (Table 3), the “Calcium assay IC50(μM) Avg ± SEM” value is “inactive”.
Same read-out and setting: in the case of `COc1ccc(C(=O)NC2CCCc3c2[nH]c2cc(C(=O)O)ccc32)cc1OC` (centres unmarked) [Compd 25, 1-(3,4-Dimethoxybenzamido)-2,3,4,9-tetrahydro-1H-carbazole-7-carboxylic acid] it was “inactive”; in that of `COc1ccc(C(=O)NC2CCCc3c2[nH]c2ccc(C(=O)O)cc32)cc1OC` (centres unmarked) [Compd 26, 1-(3,4-Dimethoxybenzamido)-2,3,4,9-tetrahydro-1H-carbazole-6-carboxylic acid], “inactive”.
Take `C=C[C@@]1(C)CC(=O)[C@]2(O)[C@@]3(C)[C@@H](O)CCC(C)(C)[C@@H]3[C@H](O)[C@H](OC(C)=O)[C@@]2(C)O1` [Forskolin, forskolin, reference compound]: the “cAMP levels after forskolin stimulation” value in assay [3] (forskolin alone, basal 0.59 ± 0.04 nM) is 4.7 ± 0.36 nM.
As for `CN(C)C(=O)CCSC(SCCC(=O)O)c1cccc(/C=C/c2ccc3ccc(Cl)cc3n2)c1` (centres unmarked) [MK571, reference compound], in assay [2], the “antagonist activity at GPR17” value was “no antagonist activity”.
On to `COc1cccc(-c2ccccc2-c2ccc(C(=O)Nc3ccc(OC)cc3C(=O)O)o2)c1` [PSB-22269], for which the “potency in a binding assay and functional assays” value in assay [1] is recorded as “nanomolar range potency”.
Consider `CSCCNc1nc(SCCC(F)(F)F)nc2c1ncn2[C@@H]1O[C@H](COP(=O)(O)OP(=O)(O)C(Cl)(Cl)P(=O)(O)O)[C@@H](O)[C@H]1O` [cangrelor], for which, in assay [1], the “block of MDL-stimulated receptor activation” value is on record as “failed to block”.
Turning to `COC(=O)[C@H](c1ccccc1Cl)N1CCc2sccc2C1` [clopidogrel, reference compound], the “antagonist activity at GPR17” value in assay [2] is on record as “do not observe antagonist activity”.
For `CC(C)(O)c1ccccc1CC[C@@H](SCC1(CC(=O)O)CC1)c1cccc(/C=C/c2ccc3ccc(Cl)cc3n2)c1` [montelukast, reference compound], the “block of MDL-stimulated receptor activation of GPR17” value in assay [1] was “partially”. For the same compound, the “antagonist activity at GPR17” value in assay [2] was “partial antagonist activity”.
In the case of `CC(=O)Oc1cc2c(s1)CCN(C(C(=O)C1CC1)c1ccccc1F)C2` (centres unmarked) [prasugrel, reference compound], in assay [2], the “antagonist activity at GPR17” value is recorded as “do not observe antagonist activity”.
As for `CCCSc1nc(N[C@@H]2C[C@H]2c2ccc(F)c(F)c2)c2nnn([C@@H]3C[C@H](OCCO)[C@@H](O)[C@H]3O)c2n1` [ticagrelor], the “block of MDL-stimulated receptor activation” value in assay [1] is “failed to block”.
With `Clc1ccccc1CN1CCc2sccc2C1` [ticlopidine, reference compound], in assay [2], the “antagonist activity at GPR17” value is recorded as “do not observe antagonist activity”.
Consider `CCCc1c(OCCCCc2nnn[nH]2)ccc(C(C)=O)c1O` [tomelukast, reference compound], for which, in assay [2], the “antagonist activity at GPR17” value is “partial antagonist activity”.
Same read-out and setting: then `COc1cc(C(=O)NS(=O)(=O)c2ccccc2C)ccc1Cc1cn(C)c2ccc(NC(=O)OC3CCCC3)cc12` [zafirlukast, reference compound], with “full antagonist activity”.

Source of the values: PMC12459614 (European journal of medicinal chemistry, 2025).
